According to patent US20230085307A1, “PYRIDAZINONE COMPOUND AND HERBICIDE” (NISSAN CHEMICAL CORPORATION, priority 2019, published 2023):

What was measured:
[1] = tested on: chickweed; assay: Test Example 4: herbicidal effect by soil treatment (Table 19, symbol P); assay type: in vivo, common chickweed (Stellaria media)
Method in brief: (§1)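 Step 1: sow seeds in sterilized diluvial soil, cover ~1.5 cm. Step 2: spray diluted emulsion onto soil surface at predetermined rate. Step 3: greenhouse, 25–30° C, three weeks. Step 4: grade effect on each plant by earlier criteria.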

[2] = tested on: southern crabgrass; assay: Test Example 5: herbicidal effect by foliage application, plastic box (Table 20, symbol F); assay type: in vivo, southern crabgrass (Digitaria ciliaris); settings: foliage application, three weeks after application
Method in brief: (§2)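 Foliar spray test: emulsion formulation diluted in water to a set application rate, sprayed onto 14-day-old plants raised in diluvial soil at 25° C to 30° C under glass. Both herbicidal effect and crop effect rated visually three weeks later.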

[3] = tested on: lambsquarters; assay: Test Example 4: herbicidal effect by soil treatment (Table 19, symbol O); assay type: in vivo, lambsquarters (Chenopodium album)
Method in brief: as §1

[4] = tested on: blackgrass; assay: Test Example 4: herbicidal effect by soil treatment (Table 19, symbol J); assay type: in vivo, blackgrass (Alopecurus myosuroides)
Method in brief: as §1

[5] = tested on: redroot pigweed; assay: Test Example 5: herbicidal effect by foliage application, plastic box (Table 20, symbol N); assay type: in vivo, redroot pigweed (Amaranthus retroflexus); settings: foliage application, three weeks after application
Method in brief: as §2

[6] = tested on: velvetleaf; assay: Test Example 5: herbicidal effect by foliage application, plastic box (Table 20, symbol M); assay type: in vivo, velvetleaf (Abutilon theophrasti); settings: foliage application, three weeks after application
Method in brief: as §2

[7] = tested on: persian speedwell; assay: Test Example 5: herbicidal effect by foliage application, plastic box (Table 20, symbol R); assay type: in vivo, Persian speedwell (Veronica persica); settings: foliage application, three weeks after application
Method in brief: as §2

[8] = tested on: wild oat; assay: Test Example 4: herbicidal effect by soil treatment (Table 19, symbol I); assay type: in vivo, wild oat (Avena fatua)
Method in brief: as §1

[9] = tested on: persian speedwell; assay: Test Example 4: herbicidal effect by soil treatment (Table 19, symbol R); assay type: in vivo, Persian speedwell (Veronica persica)
Method in brief: as §1

[10] = tested on: Italian ryegrass; assay: Test Example 4: herbicidal effect by soil treatment (Table 19, symbol K); assay type: in vivo, Italian ryegrass (Lolium multiflorum)
Method in brief: as §1

[11] = tested on: windgrass; assay: Test Example 5: herbicidal effect by foliage application, plastic box (Table 20, symbol L); assay type: in vivo, windgrass (Apera spica-venti); settings: foliage application, three weeks after application
Method in brief: as §2

[12] = tested on: Italian ryegrass; assay: Test Example 5: herbicidal effect by foliage application, plastic box (Table 20, symbol K); assay type: in vivo, Italian ryegrass (Lolium multiflorum); settings: foliage application, three weeks after application
Method in brief: as §2

[13] = tested on: barnyard grass; assay: Test Example 4: herbicidal effect by soil treatment (Table 19, symbol H); assay type: in vivo, barnyard grass (Echinochloa crus-galli)
Method in brief: as §1

[14] = tested on: wild oat; assay: Test Example 5: herbicidal effect by foliage application, plastic box (Table 20, symbol I); assay type: in vivo, wild oat (Avena fatua); settings: foliage application, three weeks after application
Method in brief: as §2

[15] = tested on: lambsquarters; assay: Test Example 5: herbicidal effect by foliage application, plastic box (Table 20, symbol O); assay type: in vivo, lambsquarters (Chenopodium album); settings: foliage application, three weeks after application
Method in brief: as §2

[16] = tested on: velvetleaf; assay: Test Example 4: herbicidal effect by soil treatment (Table 19, symbol M); assay type: in vivo, velvetleaf (Abutilon theophrasti)
Method in brief: as §1

[17] = tested on: Chinese sprangletop; assay: Test Example 3: herbicidal effect by foliage application, Wagner pot (Table 18, symbol D); assay type: in vivo, chinese sprangletop (Leptochloa chinensis)
Method in brief: (§3)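 Plants were sown in alluvial soil held under 0.1–0.5 cm standing water and grown 14 days in a greenhouse at 25–30 °C. An emulsifiable formulation, water-diluted to the set dose, was then sprayed onto the foliage, and effects were scored three weeks later using previously defined criteria.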

[18] = tested on: blackgrass; assay: Test Example 5: herbicidal effect by foliage application, plastic box (Table 20, symbol J); assay type: in vivo, blackgrass (Alopecurus myosuroides); settings: foliage application, three weeks after application
Method in brief: as §2

[19] = tested on: southern crabgrass; assay: Test Example 4: herbicidal effect by soil treatment (Table 19, symbol F); assay type: in vivo, southern crabgrass (Digitaria ciliaris)
Method in brief: as §1

[20] = tested on: redroot pigweed; assay: Test Example 4: herbicidal effect by soil treatment (Table 19, symbol N); assay type: in vivo, redroot pigweed (Amaranthus retroflexus)
Method in brief: as §1

[21] = tested on: rice flat sedge; assay: Test Example 3: herbicidal effect by foliage application, Wagner pot (Table 18, symbol E); assay type: in vivo, rice flat sedge (Cyperus iria)
Method in brief: as §3

[22] = tested on: green foxtail; assay: Test Example 4: herbicidal effect by soil treatment (Table 19, symbol G); assay type: in vivo, green foxtail (Setaria viridis)
Method in brief: as §1

[23] = tested on: green foxtail; assay: Test Example 5: herbicidal effect by foliage application, plastic box (Table 20, symbol G); assay type: in vivo, green foxtail (Setaria viridis); settings: foliage application, three weeks after application
Method in brief: as §2

[24] = tested on: barnyard grass; assay: Test Example 3: herbicidal effect by foliage application, Wagner pot (Table 18, symbol H); assay type: in vivo, barnyard grass (Echinochloa crus-galli)
Method in brief: as §3

[25] = tested on: chickweed; assay: Test Example 5: herbicidal effect by foliage application, plastic box (Table 20, symbol P); assay type: in vivo, common chickweed (Stellaria media); settings: foliage application, three weeks after application
Method in brief: as §2

[26] = tested on: windgrass; assay: Test Example 4: herbicidal effect by soil treatment (Table 19, symbol L); assay type: in vivo, windgrass (Apera spica-venti)
Method in brief: as §1

[27] = tested on: barnyard grass; assay: Test Example 5: herbicidal effect by foliage application, plastic box (Table 20, symbol H); assay type: in vivo, barnyard grass (Echinochloa crus-galli); settings: foliage application, three weeks after application
Method in brief: as §2

[28] = amount of applied herbicide 320 g/ha

Cc1nn(C)c(=O)c(-c2c(-c3cccc(C#N)c3)sc3ccccc23)c1O [1-123]
P: chickweed, herbicidal effect rating ([1]; AAH 296 g/ha): 1 (Herbicidal rate of 5% or more and less than 20%) | F: southern crabgrass, herbicidal effect ([2]; AAH 296 g/ha): 0 (Herbicidal rate of 5% or less (almost no effect)) | O: lambsquarters, herbicidal effect rating ([3]; AAH 296 g/ha): 4 (Herbicidal rate of 70% or more and less than 90%) | J: blackgrass, herbicidal effect rating ([4]; AAH 296 g/ha): 0 (Herbicidal rate of 5% or less (almost no effect)) | N: redroot pigweed, herbicidal effect ([5]; AAH 296 g/ha): 5 (Herbicidal rate of 90% or more (almost completely withered)) | M: velvetleaf, herbicidal effect ([6]; AAH 296 g/ha): 5 (Herbicidal rate of 90% or more (almost completely withered)) | R: persian speedwell, herbicidal effect ([7]; AAH 296 g/ha): 1 (Herbicidal rate of 5% or more and less than 20%) | I: wild oat, herbicidal effect rating ([8]; AAH 296 g/ha): 0 (Herbicidal rate of 5% or less (almost no effect)) | R: persian speedwell, herbicidal effect rating ([9]; AAH 296 g/ha): 3 (Herbicidal rate of 40% or more and less than 70%) | K: Italian ryegrass, herbicidal effect rating ([10]; AAH 296 g/ha): 0 (Herbicidal rate of 5% or less (almost no effect)) | L: windgrass, herbicidal effect ([11]; AAH 296 g/ha): 0 (Herbicidal rate of 5% or less (almost no effect)) | K: Italian ryegrass, herbicidal effect ([12]; AAH 296 g/ha): 0 (Herbicidal rate of 5% or less (almost no effect)) | H: barnyard grass, herbicidal effect rating ([13]; AAH 296 g/ha): 0 (Herbicidal rate of 5% or less (almost no effect)) | I: wild oat, herbicidal effect ([14]; AAH 296 g/ha): 0 (Herbicidal rate of 5% or less (almost no effect)) | O: lambsquarters, herbicidal effect ([15]; AAH 296 g/ha): 3 (Herbicidal rate of 40% or more and less than 70%) | M: velvetleaf, herbicidal effect rating ([16]; AAH 296 g/ha): 0 (Herbicidal rate of 5% or less (almost no effect)) | herbicidal effect on D (Chinese sprangletop), rating 0-5 ([17]; 296 g/ha): 3 (Herbicidal rate of 40% or more and less than 70%) | J: blackgrass, herbicidal effect ([18]; AAH 296 g/ha): 0 (Herbicidal rate of 5% or less (almost no effect)) | F: southern crabgrass, herbicidal effect rating ([19]; AAH 296 g/ha): 0 (Herbicidal rate of 5% or less (almost no effect)) | N: redroot pigweed, herbicidal effect rating ([20]; AAH 296 g/ha): 4 (Herbicidal rate of 70% or more and less than 90%) | herbicidal effect on E (rice flat sedge), rating 0-5 ([21]; 296 g/ha): 3 (Herbicidal rate of 40% or more and less than 70%) | G: green foxtail, herbicidal effect rating ([22]; AAH 296 g/ha): 0 (Herbicidal rate of 5% or less (almost no effect)) | G: green foxtail, herbicidal effect ([23]; AAH 296 g/ha): 0 (Herbicidal rate of 5% or less (almost no effect)) | herbicidal effect on H (barnyard grass), rating 0-5 ([24]; 296 g/ha): 3 (Herbicidal rate of 40% or more and less than 70%) | P: chickweed, herbicidal effect ([25]; AAH 296 g/ha): 5 (Herbicidal rate of 90% or more (almost completely withered)) | L: windgrass, herbicidal effect rating ([26]; AAH 296 g/ha): 0 (Herbicidal rate of 5% or less (almost no effect)) | H: barnyard grass, herbicidal effect ([27]; AAH 296 g/ha): 0 (Herbicidal rate of 5% or less (almost no effect))

CON=C(C)c1ccc(-c2sc3cc(F)ccc3c2-c2c(O)c(C)nn(C)c2=O)cc1 [3-017]
herbicidal effect, P: chickweed [1, 28]: 1 (Herbicidal rate of 5% or more and less than 20%) | F: southern crabgrass, herbicidal effect grade ([2]; 320 g/ha): 3 (Herbicidal rate of 40% or more and less than 70%) | herbicidal effect, O: lambsquarters [3, 28]: 4 (Herbicidal rate of 70% or more and less than 90%) | herbicidal effect, J: blackgrass [4, 28]: 0 (Herbicidal rate of 5% or less (almost no effect)) | N: redroot pigweed, herbicidal effect grade ([5]; 320 g/ha): 5 (Herbicidal rate of 90% or more (almost completely withered)) | M: velvetleaf, herbicidal effect grade ([6]; 320 g/ha): 3 (Herbicidal rate of 40% or more and less than 70%) | R: persian speedwell, herbicidal effect grade ([7]; 320 g/ha): 5 (Herbicidal rate of 90% or more (almost completely withered)) | herbicidal effect, I: wild oat [8, 28]: 0 (Herbicidal rate of 5% or less (almost no effect)) | herbicidal effect, R: persian speedwell [9, 28]: 3 (Herbicidal rate of 40% or more and less than 70%) | herbicidal effect, K: Italian ryegrass [10, 28]: 3 (Herbicidal rate of 40% or more and less than 70%) | L: windgrass, herbicidal effect grade ([11]; 320 g/ha): 2 (Herbicidal rate of 20% or more and less than 40%) | K: Italian ryegrass, herbicidal effect grade ([12]; 320 g/ha): 4 (Herbicidal rate of 70% or more and less than 90%) | herbicidal effect, H: barnyard grass [13, 28]: 0 (Herbicidal rate of 5% or less (almost no effect)) | I: wild oat, herbicidal effect grade ([14]; 320 g/ha): 1 (Herbicidal rate of 5% or more and less than 20%) | O: lambsquarters, herbicidal effect grade ([15]; 320 g/ha): 5 (Herbicidal rate of 90% or more (almost completely withered)) | herbicidal effect, M: velvetleaf [16, 28]: 0 (Herbicidal rate of 5% or less (almost no effect)) | herbicidal effect on D: Chinese sprangletop [17, 28]: 0 (Herbicidal rate of 5% or less (almost no effect)) | J: blackgrass, herbicidal effect grade ([18]; 320 g/ha): 3 (Herbicidal rate of 40% or more and less than 70%) | herbicidal effect, F: southern crabgrass [19, 28]: 0 (Herbicidal rate of 5% or less (almost no effect)) | herbicidal effect, N: redroot pigweed [20, 28]: 5 (Herbicidal rate of 90% or more (almost completely withered)) | herbicidal effect on E: rice flat sedge [21, 28]: 0 (Herbicidal rate of 5% or less (almost no effect)) | herbicidal effect, G: green foxtail [22, 28]: 0 (Herbicidal rate of 5% or less (almost no effect)) | G: green foxtail, herbicidal effect grade ([23]; 320 g/ha): 5 (Herbicidal rate of 90% or more (almost completely withered)) | herbicidal effect on H: barnyard grass [24, 28]: 3 (Herbicidal rate of 40% or more and less than 70%) | P: chickweed, herbicidal effect grade ([25]; 320 g/ha): 5 (Herbicidal rate of 90% or more (almost completely withered)) | herbicidal effect, L: windgrass [26, 28]: 0 (Herbicidal rate of 5% or less (almost no effect)) | H: barnyard grass, herbicidal effect grade ([27]; 320 g/ha): 2 (Herbicidal rate of 20% or more and less than 40%)
